Where “and” joins values, the source holds several entries; their conditions need not be identical. Equal entries are not always repeated. ± gives the expanded uncertainty stated by the source.
Assay: molar heat capacity at constant pressure
Conditions: 101.33 kPa, Crystal, Small sample (50 mg) DSC

[Pb].[Pb].[Pb].[U] [uranium trilead]
Conditions	molar heat capacity at constant pressure
316.34 K	102.56 ± 1.8 J/K/mol and 102.48 ± 1.8 J/K/mol
326.01 K	102.76 ± 1.8 J/K/mol and 102.64 ± 1.8 J/K/mol
336.81 K	102.96 ± 1.8 J/K/mol and 102.76 ± 1.8 J/K/mol
346.52 K	102.92 ± 1.8 J/K/mol and 103.16 ± 1.8 J/K/mol
356.26 K	103 ± 1.8 J/K/mol and 103.32 ± 1.8 J/K/mol
366.02 K	103.12 ± 1.8 J/K/mol and 103.44 ± 1.8 J/K/mol
375.81 K	103.24 ± 1.8 J/K/mol and 103.6 ± 1.8 J/K/mol
385.63 K	103.36 ± 1.8 J/K/mol and 103.72 ± 1.8 J/K/mol
395.49 K	103.44 ± 1.8 J/K/mol and 103.88 ± 1.8 J/K/mol
405.37 K	103.52 ± 1.8 J/K/mol and 104 ± 1.8 J/K/mol
415.29 K	104.12 ± 1.8 J/K/mol and 103.64 ± 1.8 J/K/mol
425.25 K	104.24 ± 1.8 J/K/mol and 103.72 ± 1.8 J/K/mol
435.23 K	104.32 ± 1.8 J/K/mol and 103.8 ± 1.8 J/K/mol
445.22 K	104.44 ± 1.8 J/K/mol and 103.88 ± 1.8 J/K/mol
455.21 K	104.56 ± 1.8 J/K/mol and 103.96 ± 1.8 J/K/mol
465.2 K	104.64 ± 1.8 J/K/mol and 104 ± 1.8 J/K/mol
475.19 K	104.72 ± 1.8 J/K/mol and 104.08 ± 1.8 J/K/mol
485.18 K	104.8 ± 1.8 J/K/mol and 104.16 ± 1.8 J/K/mol
495.17 K	104.92 ± 1.8 J/K/mol and 104.2 ± 1.8 J/K/mol
505.15 K	105 ± 1.8 J/K/mol and 104.28 ± 1.8 J/K/mol
515.13 K	105.08 ± 1.8 J/K/mol and 104.32 ± 1.8 J/K/mol
525.11 K	105.12 ± 1.8 J/K/mol and 104.4 ± 1.8 J/K/mol
535.04 K	105.2 ± 1.8 J/K/mol and 104.44 ± 1.8 J/K/mol
544.83 K	105.28 ± 1.8 J/K/mol and 104.48 ± 1.8 J/K/mol
554.76 K	105.36 ± 1.8 J/K/mol and 104.52 ± 1.8 J/K/mol
564.58 K	105.4 ± 1.8 J/K/mol and 104.56 ± 1.8 J/K/mol
574.42 K	105.48 ± 1.8 J/K/mol and 104.64 ± 1.8 J/K/mol
584.3 K	105.52 ± 1.8 J/K/mol and 104.68 ± 1.8 J/K/mol
594.25 K	105.6 ± 1.8 J/K/mol and 104.72 ± 1.8 J/K/mol
604.13 K	105.64 ± 1.8 J/K/mol and 104.76 ± 1.8 J/K/mol

From the NIST ThermoML archive (doi:10.1016/j.tca.2016.05.012)
